From patent US20230115476A1, “DIETARY BUTYRATE AND ITS USES” (SOCIETE DES PRODUITS NESTLE S.A., priority 2019, published 2023)

Tests used:
[1] = system: colon epithelial cells; conditions: Gillis et al. 2018; cited from earlier work
[2] = system: rabbit gastric lipase (RGL) followed by porcine pancreatic lipase (PPL); assay: Sequential in vitro digestion, simulated gastric fluid (SGF) then SIF, pH-stat; format: in vitro ADME
Experimental: (§1) 10 wt% oil in water emulsions stabilised by 0.3 wt% polyoxyethylene sorbitan mono-oleate (Tween® 80) were prepared by mixing the Tween 80 into the oil phase at 40° C., then mixing with the water phase using a magnetic stirrer. An emulsion was then created using a Hielscher UP 400S ultrasonic probe homogeniser equipped with a 5 mm diameter rod-like probe by applying 100% amplitude at 100% cycle for 2 minutes whilst the sample was cooled using ice water.
The lipid emulsion (2 mL) containing 200 mg of fat was subjected to gastrointestinal in vitro lipolysis. […] For gastric digestion, the sample was incubated for 90 minutes with 8.5 mL of simulated gastric fluid (SGF), which consisted of 150 mM NaCl, 450 U/mL pepsin, 18 U/mL rabbit gastric lipase at 37° C. and a pH of 5.5.
The intestinal digestion step was performed in the pH stat where the pH was kept constant at 6.8 by addition of NaOH (0.05 M). […] The intestinal digestion step starts when the temperature reaches 37 ± 0.5° C. The pH was adjusted to pH 6.8 and after incubation of two minutes at this pH and temperature, a pancreatin solution (5 mM tris, 150 mM NaCl at pH 6.8) was added. The final composition of the intestinal fluid was 10 mM CaCl2, 12 mM mixed bile salts, 0.75 mM phospholipid, 150 mM NaCl and 4 mM tris(hydroxymethyl)aminomethane buffer. The intestinal digestion step was carried out for 3 hours in a titration manager from Radiometer. During the intestinal phase of digestion, the kinetics of digestion were followed using a pH-stat (TIM856, Radiometer) technique and expressed as titratable acid (rather than fatty acid) that was calculated by the equation: […]
(§2) Since the digestion of dietary lipids involves lipases of both gastric and intestinal origin, lipid digestibility was assessed using two digestion models i) simulated intestinal fluid (SIF) with porcine pancreatic lipase (PPL) and ii) sequential digestion in simulated gastric fluid (SGF) with rabbit gastric lipase (RGL) followed by simulated intestinal fluid (SIF) with porcine pancreatic lipase (PPL).

[3] = system: porcine pancreatic lipase (PPL); assay: In vitro lipolysis in simulated intestinal fluid (SIF), pH-stat; format: in vitro ADME
Experimental: as §1
The lipid emulsion (2 mL) containing 200 mg of fat was subjected to gastrointestinal in vitro lipolysis. […]
The intestinal digestion step was performed in the pH stat where the pH was kept constant at 6.8 by addition of NaOH (0.05 M). […] During the intestinal phase of digestion, the kinetics of digestion were followed using a pH-stat (TIM856, Radiometer) technique and expressed as titratable acid (rather than fatty acid) that was calculated by the equation: […]
as §2

[4] = system: Enterobacteriaceae, Salmonella; conditions: following oral streptomycin administration; Byndloss 2017, Rivera-Chavez 2016; cited from earlier work

Q: With CCCC(=O)OCC(COC(=O)CCC)OC(=O)CCC [tributyrin] as the compound, how does the “Effect on antibiotic-induced lactate production” value [1] read?
A: The value was “reduce antibiotic-induced lactate production”.

Q: And the “Initial lipolysis rate in SIF” value ([2]; SGF-SIF sequential digestion, 90 min SGF pH 5.5 first)?
A: The value was 44.1 ± 8.8 µmol/min.

Q: And the “Lipolysis by gastric lipase” value ([2]; indicated by decreased total fatty acid release in SIF after RGL in SGF)?
A: The value was ~ 60%.

Q: And the “Hydrolysis in the stomach (gastric lipolysis)” value ([2]; overall conclusion in words)?
A: Its value is “extensive hydrolysis in the stomach”.

Q: What about the “Initial rate of lipolysis” value ([3]; SIF alone, emulsion with 200 mg fat, pH 6.8, 37° C.) of the same compound?
A: The value was 223 ± 59 µmol/min.

Q: And the Extent of digestion ([3]; back titration to pH 11.5, overall extent after SIF and SGF-SIF (FIG. 2))?
A: The Extent of digestion was 101.5 ± 0.9%.

Q: And the “Effect on pathogen expansion” value [4]?
A: The value was “restrict pathogen expansion”.
